12 compounds from US6225478A, “Iridoid derivatives and neovascularization inhibitors containing the same as active ingredient” (Tsumura & Co., priority 1999, dated 2001) can be followed below.

What all share (format): cell-based
Assay [1] relates to human umbilical-vein endothelial cells (HUVEC). Kind of assay: Cell Migration Assay (CMA) Test, HUVEC (% relative to control). To be noted: Homo sapiens, HUVEC, 24 hours, 60% or less = remarkable inhibition, read-out: CMA (% relative to control); for activity at 1 µg/mL: 1 μg/ml; for activity at 10 µg/mL: 10 μg/ml. As for the experimental part: (§1) Furthermore, the sample liquids of compounds used in the CPA and CMA tests were prepared in the manner described below. Firstly, after weighing out each compound, a calculated amount of DMSO was added. After dissolving the compound in the DMSO, phosphate buffered physiological saline (PBS (-)) was added to bring the sample concentration to 1 mg/ml in PBS (-). The amount of DMSO used to dissolve the compounds was adjusted in advance to that the concentration of DMSO at that time was 5%. The resulting liquids were diluted 10-fold with 5% DMSO-PBS (-) solution to prepare sample solutions having a concentration of 0.1 mg/ml. In the TFA test, 320 μl of the prepared 1 mg/ml sample solutions were removed followed by addition of 680 μl of PBS (-) to prepare samples having a concentration of […]. Moreover, 100 μl of this solution was removed followed by addition of 900 μl of PBS (-) to dilute 10-fold and prepare samples having a concentration of 1 μg/ml. P [Cell Proliferation Assay (CPA) Test]
After disseminating the 7th subculture of HUVEC obtained from the first generation in the same manner as above at 4 ml/well (3.0×10^5 cells/well) in a collagen-coated 6-well plate (NUNC), the cells were cultured for 48 hours at 37° C. in the presence of 5% CO2. The cells reached nearly a completely confluent state as a result of this culturing.
A double-edged, disposable razor blade was divided into four sections, of which one of those sections was pinched between a pair of forceps. Using this piece of razor blade, the cell surface in the above confluent state was scraped off. Two areas of the cell surface were scraped off in each well.
After washing the surface of the wells from which the cells had been scraped off with medium, 4.0 ml of fresh M199 (2+) medium were added followed by addition of 40 μl or 4 μl of sample solution (1 mg/ml). The cells were cultured for 24 hours at 37° C. in the presence of 5% CO2. After discarding the culture liquid, the cells were fixed for 30 minutes with methanol. Next, after staining the cells for 4 hours with Giemsa stain, the plates were washed with tap water and air dried.
Measurement of cell migration was performed by microscopically counting the number of cells that had newly migrated within the range of a 1 mm×1 mm block. […] The total number of cells counted in blocks 1 through 5 were then totaled to determine the overall total number of cells. Four fields were counted for each well.
Evaluation was performed determining the cell migration (%) according to the following formula.
Cell migration rate=number of migrating cells to which sample was added×100/number of migrating of control (+)
Control (+) indicates the number of migrating cells in the control well containing M199 (2+).

Assay [2] shares this test system. Kind of assay: Tube Formation Assay (TFA) Test, HUVEC in collagen gel. The conditions noted are these: Homo sapiens, HUVEC, 20 h, 20 hours, 40% or less judged remarkable, read-out: TFA (inhibition rate, %); for inhibition at 1 µg/mL: 1 μg/ml; for inhibition at 10 µg/mL: 10 μg/ml. The essentials:
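HUVEC (7th subculture, 1×10^5 cells/ml) attached to collagen gel for 2 h at 37 °C, given sample and overlaid with collagen, then cultured 20 h at 37 °C, 5% CO2 in M-199 with 20% FCS, 30 ng/ml b-FGF and 0.1 μM PMA. Tube length measured by image analysis; % inhibition relative to positive and negative controls.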

The test system is the same in assay [3]. Put plainly: Cell Proliferation Assay (CPA) Test, HUVEC, MTT. To be noted: Homo sapiens, M199 (2+) medium, read-out: CPA (IC50 μg/ml). As for the experimental part:
as §1
100 μl of the 7th subculture obtained from first generation human umbilical-vein endothelial cells (HUVEC) were disseminated in the wells (N=3) of a 96-well plate (Iwaki, Cat. #4860-010) at a cell concentration of 5×10^4 cells/ml. M-199 medium containing +20% FCS, 10 ng/ml of b-FGF and 10 ng/ml of EGF (abbreviated as "M199 (2+)") was used for the medium.
After culturing for 24 hours at 37° C. in the presence of 5% CO2 under the above conditions, 20 μl/well of MTT solution (solution containing 5 mg/ml of PBS (-)) were added to the control well followed by accurately culturing for 4 hours at 37° C. in the presence of 5% CO2. Following completion of culturing, 100 μl/well of a stop solution (0.001 N aqueous HCl solution containing 10% SDS) were added. On the other hand, 10 μl/well of sample solutions at concentrations of 1 mg/ml and 0.1 mg/ml were added to the other wells.
After culturing for 24 hours at 37° C. in the presence of 5% CO2, the medium was replaced and 100 μl/well of M199 (2+) were added. The samples were also replaced in each well at this time.
Moreover, after additionally culturing for 48 hours at 37° C. in the presence of 5% CO2, 20 μl/well of MTT solution were added to the wells containing sample and the control well followed by accurately culturing for 4 hours at 37° C. and adding 100 μl/well of stop solution.

Each structure is given as a SMILES string.

With `CNC(=O)O[C@@H]1OC=C(C(=O)OC)[C@H]2CC[C@]3(CO3)[C@@H]12` [compound 53, (1S,4aS,7S,7aR)-1-(methylcarbamoyloxy)-1,4a,5,6,7,7a-hexahydrospiro [cyclopenta [c]pyrane-7(1H),2'-oxirane]-4-carboxylic acid methylester], in assay [1], the activity at 1 µg/mL amounted to 100% and the activity at 10 µg/mL stood at 94.1%. Besides, in assay [2], the inhibition – broadly, the change of the read-out against control, counted positive when it falls – at 1 µg/mL is 26% and the inhibition at 10 µg/mL came to 9.7%. In addition, in assay [3], the IC50 was over 100 µg/mL.

Turning to `COC(=O)C1=CO[C@@H](OC(=O)Nc2ccc(F)cc2)[C@@H]2[C@@H]1C[C@@H]1O[C@]21C` [compound 36, (1S,4aS,6S,7R,7aR)-6,7-epoxy-1,4a,5,6,7,7a-hexahydro-1-[(4-fluorophenyl)carbamoyloxy]-7-methylcyclopenta [c] pyrane-4-carboxylic acid methylester], in assay [1], the activity at 1 µg/mL came to 95% and the activity at 10 µg/mL worked out at 99.7%. For the same compound, in assay [2], the inhibition at 1 µg/mL stood at 6.9% and the inhibition at 10 µg/mL was -18.3%. The IC50 in assay [3] was over 100 µg/mL.

As to `CCOC(=O)C1=CO[C@@H](OC(=O)NC)[C@@H]2[C@@H]1C[C@@H]1O[C@]21C` [compound 4, (1S,4aS,6S,7R,7aR)-6,7-epoxy-1,4a,5,6,7,7a-hexahydro-7-methyl-1-(methylcarbamoyloxy) cyclopenta [c]-pyrane-4-carboxylic acid ethylester], in assay [1], the activity at 1 µg/mL is 70.8% and the activity at 10 µg/mL worked out at 53%. For the same compound, in assay [2], the inhibition at 1 µg/mL is 40.5% and the inhibition at 10 µg/mL is 5.6%. In assay [3], the IC50 was over 100 µg/mL.

As for `CNC(=O)O[C@@H]1OC=C(C(=O)OC2CCCCC2)[C@H]2C[C@@H]3O[C@]3(C)[C@H]12` [compound 14, (1S,4aS,6S,7R,7aR)-6,7-epoxy-1,4a,5,6,7,7a-hexahydro-7-methyl-1-(methylcarbamoyloxy) cyclopenta [c]-pyrane-4-carboxylic acid cyclohexylester], in assay [1], the activity at 1 µg/mL worked out at 99.4% and the activity at 10 µg/mL was found to be 102%. For the same compound, in assay [2], the inhibition at 1 µg/mL was determined as 38.2% and the inhibition at 10 µg/mL turned out to be 48.7%. Besides, the IC50 in assay [3] is over 100 µg/mL.

On to `CNC(=O)OC[C@]12O[C@H]1C[C@@H]1C(C(=O)OC)=CO[C@@H](O)[C@@H]12` [Compound 60, (4aS,6S,7R,7aR)-6,7-epoxy-1-hydroxy-7-methylcarbamoyloxymethyl-1,4a,5,6,7a-pentahydro [c] pyrane-4-carboxylic acid methylester], for which, in assay [1], the activity at 1 µg/mL turned out to be 87.1% and the activity at 10 µg/mL is 96.3%. In addition, in assay [2], the inhibition at 1 µg/mL came out at 32.7% and the inhibition at 10 µg/mL turned out to be 41.5%. The IC50 in assay [3] is over 100 µg/mL.

Turning to `CNC(=O)OC1OC=C(C(=O)N2CCCCC2)C2CC3OC3(C)C12` [compound 26, (1S,4aS,6S,7R,7aR)-6,7-epoxy-1,4a,5,6,7,7a-hexahydro-7-methyl-1-(methylcarbamoyloxy) cyclopenta [c]-pyrane-4-carboxylic acid piperidylamide], in assay [1], the activity at 1 µg/mL came out at 84% and the activity at 10 µg/mL turned out to be 104%. Further, in assay [2], the inhibition at 1 µg/mL turned out to be 41.2% and the inhibition at 10 µg/mL was 30.8%. The IC50 in assay [3] is over 100 µg/mL.

As to `CNC(=O)O[C@@H]1OC=C(C(=O)OC)[C@H]2C[C@H]3O[C@@]3(C)C12` (stereo in doubt) [Compound 57, (1S,4aS,6R,7S,7aR)-6,7-epoxy-7-methyl-1-(methylcarbamoyloxy)-1,4a,5,6,7,7a-hexahydrocyclopenta [c] pyrane-4-carboxylic acid methylester], in assay [1], the activity at 1 µg/mL was found to be 96% and the activity at 10 µg/mL turned out to be 93%. In addition, in assay [2], the inhibition at 1 µg/mL worked out at 17.7% and the inhibition at 10 µg/mL turned out to be 13.5%. Besides, in assay [3], the IC50 is over 100 µg/mL.

With `CNC(=O)O[C@@H]1OC=C(C(=O)OC)[C@H]2CC[C@@]3(CO3)[C@@H]12` [compound 52, (1S,4aS,7R,7aR)-1-(methylcarbamoyloxy)-1,4a,5,6,7,7a-hexahydrospiro [cyclopenta [c]pyrane-7(1H),2'-oxirane]-4-carboxylic acid methylester], in assay [1], the activity at 1 µg/mL worked out at 101% and the activity at 10 µg/mL stood at 103%. Further, in assay [2], the inhibition at 1 µg/mL worked out at 21.7% and the inhibition at 10 µg/mL is -6.5%. Also, in assay [3], the IC50 was over 100 µg/mL.

Take `COC(=O)C1=CO[C@H](OC(=O)NC(=O)c2ccccc2)C2[C@@H]1C[C@@H]1O[C@]21C` (stereo in doubt) [compound 42, (1R,4aS,6S,7R,7aR)-1-(benzoylcarbamoyloxy)-6,7-epoxy-1,4a,5,6,7,7a-hexahydro-7-methylcyclopenta [c] pyrane-4-carboxylic acid methylester]: in assay [1], the activity at 1 µg/mL came to 90.4% and the activity at 10 µg/mL came to 70.6%. In addition, in assay [2], the inhibition at 1 µg/mL was 12.5% and the inhibition at 10 µg/mL was determined as 18.7%. The IC50 in assay [3] is over 100 µg/mL.

In the case of `CNC(=O)O[C@@H]1OC=C(C(=O)OC)[C@H]2C[C@@H]3OC3(COC(=O)OC)C12` (stereo in doubt) [compound 47, (1S,4aS,6S,7R,7aR)-6,7-epoxy-7-(methoxycarbonyloxymethyl)-1-(methylcarbamoyloxy)-1,4a,5,6,7,7a-hexahydrocyclopenta [c] pyrane-4-carboxylic acid methylester], in assay [1], the activity at 1 µg/mL is 95.9% and the activity at 10 µg/mL came out at 60.5%. In assay [2], the inhibition at 1 µg/mL is -27.3% and the inhibition at 10 µg/mL amounted to 2.6%. In assay [3], the IC50 was over 100 µg/mL.

Consider `CNC(=O)O[C@@H]1OC=C(C(=O)OCCc2ccccc2)[C@H]2C[C@@H]3O[C@]3(C)[C@H]12` [compound 12, (1S,4aS,6S,7R,7aR)-6,7-epoxy-1,4a,5,6,7,7a-hexahydro-7-methyl-1-(methylcarbamoyloxy) cyclopenta [c]-pyrane-4-carboxylic acid phenylethylester], for which, in assay [1], the activity at 1 µg/mL is 101% and the activity at 10 µg/mL is 89.8%. In assay [2], the inhibition at 1 µg/mL was found to be 32.7% and the inhibition at 10 µg/mL is 32.5%. Further, in assay [3], the IC50 was over 100 µg/mL.

As for `CNC(=O)O[C@@H]1OC=C(C(=O)OC)[C@H]2C[C@@H]3O[C@]3(COC(C)=O)[C@@H]12` [compound 46, (1S,4aS,6S. 7R,7aR)-7-(acetoxymethyl)-6,7-epoxy-1-(methylcarbamoyloxy)-1,4a,5,6,7,7a-hexahydro [c] pyrane-4-carboxylic acid methylester], in assay [1], the activity at 1 µg/mL came out at 105% and the activity at 10 µg/mL was 103%. Moreover, in assay [2], the inhibition at 1 µg/mL was -0.8% and the inhibition at 10 µg/mL came to 1.5%. The IC50 in assay [3] is over 100 µg/mL.
